Results from ChEMBL document CHEMBL3991601, “The target landscape of clinical kinase drugs” (Science, 2017).
Active and inactive are the calls of the source. Rule as the data show it, for most assays here: actives have a measured Kd and inactives only a lower limit.

How the values were obtained:
[1] = molecular target: Serine/threonine-protein kinase N2 (Homo sapiens, UniProt Q16513)
[2] = molecular target: Tyrosine-protein kinase Fer (Homo sapiens, UniProt P16591)
LIM domain kinase 1 = LIM domain kinase 1 (Homo sapiens, UniProt P53667)
[3] = molecular target: AP2-associated protein kinase 1 (Homo sapiens, UniProt Q2M2I8)
Sequence of AP2-associated protein kinase 1 (Q2M2I8 whole entry): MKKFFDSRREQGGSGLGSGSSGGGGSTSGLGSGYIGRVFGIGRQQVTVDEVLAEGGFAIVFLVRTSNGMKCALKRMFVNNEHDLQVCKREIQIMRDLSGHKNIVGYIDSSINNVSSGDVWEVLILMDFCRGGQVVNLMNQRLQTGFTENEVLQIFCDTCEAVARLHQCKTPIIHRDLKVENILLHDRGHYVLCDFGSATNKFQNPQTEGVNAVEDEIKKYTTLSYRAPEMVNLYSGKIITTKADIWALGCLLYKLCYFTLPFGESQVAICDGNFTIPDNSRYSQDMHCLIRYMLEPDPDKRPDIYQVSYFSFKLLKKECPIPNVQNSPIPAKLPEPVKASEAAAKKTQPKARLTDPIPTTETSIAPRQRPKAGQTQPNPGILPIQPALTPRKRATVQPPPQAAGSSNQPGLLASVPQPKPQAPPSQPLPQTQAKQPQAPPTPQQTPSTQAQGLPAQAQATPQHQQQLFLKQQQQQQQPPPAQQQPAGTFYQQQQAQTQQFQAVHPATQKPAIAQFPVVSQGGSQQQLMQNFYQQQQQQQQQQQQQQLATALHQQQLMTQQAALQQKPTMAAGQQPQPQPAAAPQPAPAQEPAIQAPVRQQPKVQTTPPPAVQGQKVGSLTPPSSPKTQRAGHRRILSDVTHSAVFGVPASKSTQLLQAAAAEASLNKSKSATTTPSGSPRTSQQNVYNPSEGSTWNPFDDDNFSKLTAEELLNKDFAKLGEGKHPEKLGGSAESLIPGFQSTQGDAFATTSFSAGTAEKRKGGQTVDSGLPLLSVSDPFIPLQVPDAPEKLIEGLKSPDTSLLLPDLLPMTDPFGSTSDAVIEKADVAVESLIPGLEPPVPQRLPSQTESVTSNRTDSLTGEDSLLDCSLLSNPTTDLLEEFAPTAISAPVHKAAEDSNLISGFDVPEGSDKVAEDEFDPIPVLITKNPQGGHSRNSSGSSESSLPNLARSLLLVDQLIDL

[4] = molecular target: T1, Serine/threonine-protein kinase D3 (Homo sapiens, UniProt O94806)
T1 sequence (O94806 whole entry): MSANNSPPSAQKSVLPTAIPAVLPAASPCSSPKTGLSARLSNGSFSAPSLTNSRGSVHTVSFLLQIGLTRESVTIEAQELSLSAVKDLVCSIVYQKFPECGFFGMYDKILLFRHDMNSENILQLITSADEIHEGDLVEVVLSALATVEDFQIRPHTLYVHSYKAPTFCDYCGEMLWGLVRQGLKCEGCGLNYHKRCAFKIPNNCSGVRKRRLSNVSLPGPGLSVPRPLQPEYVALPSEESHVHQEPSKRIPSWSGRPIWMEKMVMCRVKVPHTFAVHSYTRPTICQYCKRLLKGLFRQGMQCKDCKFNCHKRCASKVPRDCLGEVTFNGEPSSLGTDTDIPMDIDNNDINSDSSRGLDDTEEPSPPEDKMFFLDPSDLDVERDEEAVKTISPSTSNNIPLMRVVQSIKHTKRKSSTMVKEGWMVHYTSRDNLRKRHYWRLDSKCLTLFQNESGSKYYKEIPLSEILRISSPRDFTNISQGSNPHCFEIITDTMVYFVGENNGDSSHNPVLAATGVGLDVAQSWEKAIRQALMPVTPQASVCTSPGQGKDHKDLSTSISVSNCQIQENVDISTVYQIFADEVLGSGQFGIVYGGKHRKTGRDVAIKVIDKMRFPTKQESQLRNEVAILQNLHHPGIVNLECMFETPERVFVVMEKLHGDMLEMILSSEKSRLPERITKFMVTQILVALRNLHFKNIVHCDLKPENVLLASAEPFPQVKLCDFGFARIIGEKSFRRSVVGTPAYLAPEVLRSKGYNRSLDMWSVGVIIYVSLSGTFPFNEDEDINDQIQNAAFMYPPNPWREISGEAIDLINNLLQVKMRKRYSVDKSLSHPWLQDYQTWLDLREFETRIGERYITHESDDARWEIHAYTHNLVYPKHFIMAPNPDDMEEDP

[5] = molecular target: Serine/threonine-protein kinase SIK3 (Homo sapiens, UniProt Q9Y2K2)
Sequence of Serine/threonine-protein kinase SIK3 (Q9Y2K2 whole entry): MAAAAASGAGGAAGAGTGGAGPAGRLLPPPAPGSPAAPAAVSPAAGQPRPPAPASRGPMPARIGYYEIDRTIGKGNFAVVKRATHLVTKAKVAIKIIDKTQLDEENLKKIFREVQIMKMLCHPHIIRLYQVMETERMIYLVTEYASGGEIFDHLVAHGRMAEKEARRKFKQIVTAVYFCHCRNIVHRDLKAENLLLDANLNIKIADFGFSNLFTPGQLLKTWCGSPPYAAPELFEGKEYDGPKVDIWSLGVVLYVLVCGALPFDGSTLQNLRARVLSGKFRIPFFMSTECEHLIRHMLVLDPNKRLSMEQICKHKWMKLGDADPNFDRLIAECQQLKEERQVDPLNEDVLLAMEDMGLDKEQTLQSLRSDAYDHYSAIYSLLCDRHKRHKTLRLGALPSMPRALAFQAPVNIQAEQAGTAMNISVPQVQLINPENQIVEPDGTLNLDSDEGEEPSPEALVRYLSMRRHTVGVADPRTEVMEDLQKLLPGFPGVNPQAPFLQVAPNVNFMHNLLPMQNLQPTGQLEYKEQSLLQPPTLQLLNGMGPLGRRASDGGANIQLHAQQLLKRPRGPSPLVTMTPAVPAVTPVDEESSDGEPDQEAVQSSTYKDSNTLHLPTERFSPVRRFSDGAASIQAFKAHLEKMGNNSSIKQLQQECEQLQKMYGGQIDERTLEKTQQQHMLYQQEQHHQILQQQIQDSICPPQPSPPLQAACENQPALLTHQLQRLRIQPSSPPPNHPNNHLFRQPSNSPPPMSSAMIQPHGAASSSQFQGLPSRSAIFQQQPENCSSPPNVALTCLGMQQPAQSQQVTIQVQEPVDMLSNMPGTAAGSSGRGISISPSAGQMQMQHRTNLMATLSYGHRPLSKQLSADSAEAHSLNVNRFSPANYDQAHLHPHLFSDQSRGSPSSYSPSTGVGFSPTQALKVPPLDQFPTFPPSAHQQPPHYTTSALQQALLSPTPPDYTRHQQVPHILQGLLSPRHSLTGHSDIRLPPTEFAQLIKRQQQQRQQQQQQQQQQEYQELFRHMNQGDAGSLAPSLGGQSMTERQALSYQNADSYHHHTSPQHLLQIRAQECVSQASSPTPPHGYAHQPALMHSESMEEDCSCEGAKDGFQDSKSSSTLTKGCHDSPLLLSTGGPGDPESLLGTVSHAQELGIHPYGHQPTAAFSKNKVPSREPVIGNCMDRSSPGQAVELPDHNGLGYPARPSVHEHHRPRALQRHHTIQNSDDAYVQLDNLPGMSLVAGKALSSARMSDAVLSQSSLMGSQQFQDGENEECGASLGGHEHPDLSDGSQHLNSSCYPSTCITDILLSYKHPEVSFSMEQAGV

[6] = molecular target: Myosin light chain kinase, smooth muscle (Homo sapiens, UniProt Q15746)
[7] = molecular target: Serine/threonine-protein kinase N1 (Homo sapiens, UniProt Q16512)
[8] = molecular target: Protein kinase C beta type (Homo sapiens, UniProt P05771)
[9] = molecular target: Mitogen-activated protein kinase kinase kinase 1 (Homo sapiens, UniProt Q13233)
Sequence of Mitogen-activated protein kinase kinase kinase 1 (Q13233 whole entry): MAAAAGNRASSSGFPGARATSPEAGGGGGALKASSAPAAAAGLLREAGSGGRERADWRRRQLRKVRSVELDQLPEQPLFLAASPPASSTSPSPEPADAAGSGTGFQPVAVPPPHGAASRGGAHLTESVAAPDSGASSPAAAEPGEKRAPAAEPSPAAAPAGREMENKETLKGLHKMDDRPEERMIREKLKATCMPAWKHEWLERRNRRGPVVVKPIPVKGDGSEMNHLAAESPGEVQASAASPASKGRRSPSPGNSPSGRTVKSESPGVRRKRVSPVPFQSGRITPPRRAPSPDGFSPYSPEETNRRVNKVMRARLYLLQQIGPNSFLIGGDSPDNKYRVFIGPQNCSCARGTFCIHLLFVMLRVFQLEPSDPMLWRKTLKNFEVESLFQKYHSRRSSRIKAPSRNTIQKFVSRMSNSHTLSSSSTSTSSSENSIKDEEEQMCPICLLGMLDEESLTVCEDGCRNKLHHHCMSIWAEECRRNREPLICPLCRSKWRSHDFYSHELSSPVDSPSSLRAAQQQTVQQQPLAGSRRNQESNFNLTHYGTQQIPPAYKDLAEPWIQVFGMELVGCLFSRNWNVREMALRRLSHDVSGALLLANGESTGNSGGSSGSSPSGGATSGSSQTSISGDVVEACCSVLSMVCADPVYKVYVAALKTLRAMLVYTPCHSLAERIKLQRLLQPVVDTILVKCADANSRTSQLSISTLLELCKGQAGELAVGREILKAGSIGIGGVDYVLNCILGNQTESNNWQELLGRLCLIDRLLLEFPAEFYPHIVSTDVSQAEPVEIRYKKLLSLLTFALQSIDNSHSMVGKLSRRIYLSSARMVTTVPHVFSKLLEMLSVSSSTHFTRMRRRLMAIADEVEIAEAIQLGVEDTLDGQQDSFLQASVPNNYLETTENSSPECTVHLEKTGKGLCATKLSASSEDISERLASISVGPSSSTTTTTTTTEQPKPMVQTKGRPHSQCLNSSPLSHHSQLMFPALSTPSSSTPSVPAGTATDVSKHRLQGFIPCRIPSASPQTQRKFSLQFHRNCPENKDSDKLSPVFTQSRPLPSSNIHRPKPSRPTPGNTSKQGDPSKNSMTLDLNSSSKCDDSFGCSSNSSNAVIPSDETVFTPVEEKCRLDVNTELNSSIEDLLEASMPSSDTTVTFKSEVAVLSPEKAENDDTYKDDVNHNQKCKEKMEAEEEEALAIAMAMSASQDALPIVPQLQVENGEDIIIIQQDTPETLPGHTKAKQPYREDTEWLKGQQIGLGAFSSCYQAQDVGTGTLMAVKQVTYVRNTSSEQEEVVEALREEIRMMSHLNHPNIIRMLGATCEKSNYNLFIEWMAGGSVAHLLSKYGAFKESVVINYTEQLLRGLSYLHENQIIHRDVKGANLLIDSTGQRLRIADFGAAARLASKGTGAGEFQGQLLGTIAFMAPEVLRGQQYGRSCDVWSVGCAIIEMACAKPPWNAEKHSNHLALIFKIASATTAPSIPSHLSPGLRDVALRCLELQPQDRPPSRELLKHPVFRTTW

[10] = molecular target: Ribosomal protein S6 kinase alpha-3 (Homo sapiens, UniProt P51812)
Ephrin type-B receptor 3 = molecular target: T2, Ephrin type-B receptor 3 (Homo sapiens, UniProt P54753)
T2 sequence (P54753 whole entry): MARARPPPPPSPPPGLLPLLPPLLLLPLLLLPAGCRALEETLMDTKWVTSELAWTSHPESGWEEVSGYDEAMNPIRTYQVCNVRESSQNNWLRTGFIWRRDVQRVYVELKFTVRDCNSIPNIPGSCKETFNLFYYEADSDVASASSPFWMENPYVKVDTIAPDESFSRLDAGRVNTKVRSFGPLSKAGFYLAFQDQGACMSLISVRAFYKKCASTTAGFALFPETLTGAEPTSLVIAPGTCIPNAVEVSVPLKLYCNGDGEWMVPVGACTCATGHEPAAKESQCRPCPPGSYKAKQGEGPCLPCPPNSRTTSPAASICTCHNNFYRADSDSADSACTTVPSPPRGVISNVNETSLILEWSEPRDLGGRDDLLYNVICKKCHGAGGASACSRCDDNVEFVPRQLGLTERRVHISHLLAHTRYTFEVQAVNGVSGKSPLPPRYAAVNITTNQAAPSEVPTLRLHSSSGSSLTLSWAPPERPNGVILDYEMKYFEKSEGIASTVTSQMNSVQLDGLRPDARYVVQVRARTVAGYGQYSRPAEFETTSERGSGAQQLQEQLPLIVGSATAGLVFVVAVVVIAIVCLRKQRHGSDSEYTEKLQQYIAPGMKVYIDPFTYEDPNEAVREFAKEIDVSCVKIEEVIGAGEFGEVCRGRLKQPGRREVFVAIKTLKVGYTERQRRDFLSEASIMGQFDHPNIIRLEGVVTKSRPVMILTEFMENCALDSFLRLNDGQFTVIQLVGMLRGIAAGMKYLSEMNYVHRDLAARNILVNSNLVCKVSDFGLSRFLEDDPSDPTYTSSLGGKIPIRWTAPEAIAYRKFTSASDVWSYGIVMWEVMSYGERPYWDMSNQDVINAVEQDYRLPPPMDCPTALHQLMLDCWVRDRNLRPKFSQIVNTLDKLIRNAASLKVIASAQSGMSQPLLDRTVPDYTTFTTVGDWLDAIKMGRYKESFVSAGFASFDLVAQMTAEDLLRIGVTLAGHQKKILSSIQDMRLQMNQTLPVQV

[11] = molecular target: Platelet-derived growth factor receptor beta (Homo sapiens, UniProt P09619)
[12] = molecular target: T3, Probable ATP-dependent RNA helicase DDX6 (Homo sapiens, UniProt P26196)
T3 sequence (P26196 whole entry): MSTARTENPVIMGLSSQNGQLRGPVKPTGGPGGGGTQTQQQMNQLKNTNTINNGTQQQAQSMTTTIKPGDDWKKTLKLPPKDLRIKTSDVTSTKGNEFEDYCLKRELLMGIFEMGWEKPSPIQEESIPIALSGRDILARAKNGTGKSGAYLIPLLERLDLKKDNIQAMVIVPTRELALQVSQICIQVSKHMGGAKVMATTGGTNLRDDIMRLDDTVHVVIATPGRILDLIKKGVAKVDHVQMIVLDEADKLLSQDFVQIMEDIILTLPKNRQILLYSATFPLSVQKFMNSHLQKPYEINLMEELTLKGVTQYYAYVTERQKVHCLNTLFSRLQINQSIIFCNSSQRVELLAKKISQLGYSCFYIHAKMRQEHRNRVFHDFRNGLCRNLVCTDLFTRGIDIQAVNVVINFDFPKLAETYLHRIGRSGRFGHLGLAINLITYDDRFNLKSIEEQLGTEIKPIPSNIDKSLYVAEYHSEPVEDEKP
Also: in the data inactive means no Kd found up to 30 µM.

Sequence of Tyrosine-protein kinase Fer (P16591 whole entry, the tested form may be a part): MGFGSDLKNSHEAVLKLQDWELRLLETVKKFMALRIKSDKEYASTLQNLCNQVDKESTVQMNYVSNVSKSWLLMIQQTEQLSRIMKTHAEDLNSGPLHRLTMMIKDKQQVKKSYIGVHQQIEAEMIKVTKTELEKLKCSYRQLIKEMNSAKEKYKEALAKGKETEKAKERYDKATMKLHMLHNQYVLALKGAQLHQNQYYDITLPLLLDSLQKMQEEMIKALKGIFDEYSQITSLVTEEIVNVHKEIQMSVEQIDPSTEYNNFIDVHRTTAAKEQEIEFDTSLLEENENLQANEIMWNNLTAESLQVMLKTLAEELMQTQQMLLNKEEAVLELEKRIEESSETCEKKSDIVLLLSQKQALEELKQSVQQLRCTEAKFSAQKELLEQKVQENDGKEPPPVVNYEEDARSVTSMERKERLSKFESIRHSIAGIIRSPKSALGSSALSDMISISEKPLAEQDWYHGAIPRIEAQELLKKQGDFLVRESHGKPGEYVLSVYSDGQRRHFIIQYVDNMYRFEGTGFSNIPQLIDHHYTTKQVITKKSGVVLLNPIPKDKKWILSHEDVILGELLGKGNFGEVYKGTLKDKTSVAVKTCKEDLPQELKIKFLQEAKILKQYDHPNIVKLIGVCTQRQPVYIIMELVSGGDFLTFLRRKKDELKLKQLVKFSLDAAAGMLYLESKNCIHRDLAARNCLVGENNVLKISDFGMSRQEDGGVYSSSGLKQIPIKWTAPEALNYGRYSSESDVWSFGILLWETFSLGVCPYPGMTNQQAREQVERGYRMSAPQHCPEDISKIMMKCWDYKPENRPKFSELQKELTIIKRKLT

Compound	Kd [1]	Kd [2]	Kd (LIM domain kinase 1)	Kd [3]	Kd [4]	Kd [5]	Kd [6]	Kd [7]	Kd [8]	Kd [9]	Kd [10]	Kd (Ephrin type-B receptor 3)	Kd [11]	Kd [12]
COc1cc2ncnc3c2cc1OCCCCCN(C)Cc1ccc(Br)cc1N3 [JNJ-26483327]	> 30 µM (inactive)	> 30 µM (inactive)	> 30 µM (inactive)	> 30 µM (inactive)	> 30 µM (inactive)	> 30 µM (inactive)	> 30 µM (inactive)	> 30 µM (inactive)	> 30 µM (inactive)	> 30 µM (inactive)	> 30 µM (inactive)	> 30 µM (inactive)	> 30 µM (inactive)	> 30 µM (inactive)
COc1cc2ncnc(Nc3ccc(F)c(Cl)c3)c2cc1NC(=O)/C=C/CN1CCCCC1 [DACOMITINIB ANHYDROUS]	> 30 µM (inactive)	> 30 µM (inactive)	> 30 µM (inactive)	> 30 µM (inactive)	> 30 µM (inactive)	> 30 µM (inactive)	> 30 µM (inactive)	> 30 µM (inactive)	> 30 µM (inactive)	> 30 µM (inactive)	> 30 µM (inactive)	> 30 µM (inactive)	> 30 µM (inactive)	> 30 µM (inactive)
C#Cc1cccc(Nc2ncnc3cc4c(cc23)OCCOCCOCCO4)c1 [ICOTINIB]	> 30 µM (inactive)	> 30 µM (inactive)	> 30 µM (inactive)	> 30 µM (inactive)	> 30 µM (inactive)	> 30 µM (inactive)	> 30 µM (inactive)	> 30 µM (inactive)	> 30 µM (inactive)	4.13 µM (active)	> 30 µM (inactive)	> 30 µM (inactive)	> 30 µM (inactive)	> 30 µM (inactive)
COc1cc2ncnc(Nc3ccc(O)cc3)c2cc1OC [WHI-P131]	> 30 µM (inactive)	> 30 µM (inactive)	> 30 µM (inactive)	1.07 µM (active)	> 30 µM (inactive)	> 30 µM (inactive)	> 30 µM (inactive)	> 30 µM (inactive)	> 30 µM (inactive)	> 30 µM (inactive)	> 30 µM (inactive)	> 30 µM (inactive)	> 30 µM (inactive)	> 30 µM (inactive)
O=C(O)c1ccc2c(c1)nc(Nc1cccc(Cl)c1)c1ccncc12 [SILMITASERTIB]	> 30 µM (inactive)	> 30 µM (inactive)	> 30 µM (inactive)	> 30 µM (inactive)	> 30 µM (inactive)	> 30 µM (inactive)	> 30 µM (inactive)	20.4 µM (active)	> 30 µM (inactive)	> 30 µM (inactive)	> 30 µM (inactive)	> 30 µM (inactive)	> 30 µM (inactive)	> 30 µM (inactive)
O[C@H]1CC[C@H](Nc2ncc3nc(Nc4c(F)cc(F)cc4F)n([C@H]4CCOC4)c3n2)CC1 [TANZISERTIB]	> 30 µM (inactive)	> 30 µM (inactive)	2.17 µM (active)	> 30 µM (inactive)	> 30 µM (inactive)	2.98 µM (active)	2.63 µM	> 30 µM (inactive)	> 30 µM (inactive)	> 30 µM (inactive)	> 30 µM (inactive)	> 30 µM (inactive)	> 30 µM (inactive)	> 30 µM (inactive)
S=C(NCc1ccc2c(c1)OCO2)N1CCN(c2ncnc3c2oc2ccccc23)CC1 [AMUVATINIB]	> 30 µM (inactive)	> 30 µM (inactive)	> 30 µM (inactive)	> 30 µM (inactive)	> 30 µM (inactive)	> 30 µM (inactive)	> 30 µM (inactive)	> 30 µM (inactive)	> 30 µM (inactive)	> 30 µM (inactive)	> 30 µM (inactive)	> 30 µM (inactive)	> 30 µM (inactive)	> 30 µM (inactive)
CCOc1ccn(-c2ccc(F)cc2)c(=O)c1C(=O)Nc1ccc(Oc2ccnc(N)c2Cl)c(F)c1 [BMS-777607]	> 30 µM (inactive)	> 30 µM (inactive)	> 30 µM (inactive)	> 30 µM (inactive)	> 30 µM (inactive)	> 30 µM (inactive)	> 30 µM (inactive)	> 30 µM (inactive)	> 30 µM (inactive)	> 30 µM (inactive)	> 30 µM (inactive)	> 30 µM (inactive)	> 30 µM (inactive)	> 30 µM (inactive)
CNC(=O)c1cc(COc2nnc(Nc3ccc(Cl)cc3)c3ccoc23)ccn1 [TELATINIB]	> 30 µM (inactive)	> 30 µM (inactive)	> 30 µM (inactive)	> 30 µM (inactive)	> 30 µM (inactive)	> 30 µM (inactive)	> 30 µM (inactive)	> 30 µM (inactive)	> 30 µM (inactive)	> 30 µM (inactive)	> 30 µM (inactive)	> 30 µM (inactive)	0.555 µM (active)	> 30 µM (inactive)
COc1cc(F)c(F)c(Nc2ccc(I)cc2F)c1NS(=O)(=O)C1(C[C@H](O)CO)CC1 [REFAMETINIB]	> 30 µM (inactive)	> 30 µM (inactive)	> 30 µM (inactive)	> 30 µM (inactive)	> 30 µM (inactive)	> 30 µM (inactive)	> 30 µM (inactive)	> 30 µM (inactive)	> 30 µM (inactive)	> 30 µM (inactive)	> 30 µM (inactive)	> 30 µM (inactive)	> 30 µM (inactive)	> 30 µM (inactive)
